Results reported in patent US20220386606A1, “SPECIFICALLY SUBSTITUTED 3-PHENYL-5-SPIROCYCLOPENTYL-3-PYRROLIN-2-ONES AND THEIR USE AS HERBICIDES” (Bayer Aktiengesellschaft, priority 2019, published 2022).

Assays:
ECHCG [1] = assay: Post-emergence herbicidal action against ECHCG; type: in vivo, Echinochloa crus-galli; details: 80 g/ha, visual assessment about 3 weeks after treatment vs untreated controls
Summary of the method: (§1)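 Weeds and crops grown in sandy loam in the greenhouse, treated post-emergence at the one-leaf stage (2–3 weeks after sowing). WP or EC formulations sprayed as aqueous suspension/emulsion at 600–800 l/ha water with 0.2% wetting agent. Visual % activity scored after about 3 weeks versus untreated controls (100% = dead, 0% = like control).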

AVEFA [2] = assay: Post-emergence herbicidal action against AVEFA; type: in vivo, Avena fatua; details: 80 g/ha, visual assessment after about 3 weeks
Summary of the method: as §1

HORMU = assay: Post-emergence herbicidal action against HORMU; type: in vivo, Hordeum murinum; details: 80 g/ha, visual assessment about 3 weeks after treatment vs untreated controls
Description: (§2) Seeds of monocotyledonous and dicotyledonous weed and crop plants are laid out in sandy loam soil in wood-fiber pots, covered with soil and cultivated in a greenhouse under good growth conditions. 2 to 3 weeks after sowing, the test plants are treated at the one-leaf stage. The compounds of the invention, formulated in the form of wettable powders (WP) or as emulsion concentrates (EC), are then sprayed onto the green parts of the plants as aqueous suspension or emulsion at a water application rate equating to 600 to 800 l/ha with addition of 0.2% wetting agent. After the test plants have been left to stand in the greenhouse under optimal growth conditions for about 3 weeks, the action of the preparations is assessed visually in comparison to untreated controls (herbicidal action in percent (%): 100% activity=the plants have died, 0% activity=like control plants).

LOLRI [3] = assay: Post-emergence herbicidal action against LOLRI; type: in vivo, Lolium rigidum; details: 80 g/ha, visual assessment about 3 weeks after treatment vs untreated controls
Summary of the method: as §1

SETVI [4] = assay: Post-emergence herbicidal action against SETVI; type: in vivo, Setaria viridis; details: 80 g/ha, visual assessment about 3 weeks after treatment vs untreated controls
Summary of the method: as §1

ALOMY [5] = assay: Post-emergence herbicidal action against ALOMY; type: in vivo, Alopecurus myosuroides; details: 80 g/ha, visual assessment after about 3 weeks
Summary of the method: as §1

DIGSA [6] = assay: Post-emergence herbicidal action against DIGSA; type: in vivo, Digitaria sanguinalis; details: 80 g/ha, visual assessment about 3 weeks after treatment vs untreated controls
Summary of the method: as §1

SETVI [7] = assay: Pre-emergence herbicidal action against SETVI; type: in vivo, Setaria viridis; details: 320 g/ha, scored visually after 3 weeks vs untreated controls
Summary of the method: (§3)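 Sandy loam, wood-fiber pots, seeds covered with soil. Spray onto soil surface: aqueous WP/EC, 600 to 800 L/ha, 0.2% wetting agent. Greenhouse 3 weeks; visual % score vs untreated controls.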

DIGSA [8] = assay: Pre-emergence herbicidal action against DIGSA; type: in vivo, Digitaria sanguinalis; details: 320 g/ha, scored visually after 3 weeks vs untreated controls
Summary of the method: as §3

VERPE = assay: Pre-emergence herbicidal action against VERPE; type: in vivo, Veronica persica; details: 320 g/ha
Summary of the method: as §3

ABUTH = assay: Post-emergence herbicidal action against ABUTH; type: in vivo, Abutylon threophrasti; details: 80 g/ha, visual assessment about 3 weeks after treatment vs untreated controls
Description: as §2

POLCO = assay: Pre-emergence herbicidal action against POLCO; type: in vivo, Polygonum convolvulus; details: 320 g/ha
From the text: Seeds of monocotyledonous and dicotyledonous weed plants and crop plants are laid out in sandy loam soil in wood-fiber pots and covered with soil. The compounds of the invention, formulated in the form of wettable powders (WP) or as emulsion concentrates (EC), are then applied to the surface of the covering soil as aqueous suspension or emulsion at a water application rate equating to 600 to 800 L/ha with addition of 0.2% wetting agent.
After the treatment, the pots are placed in a greenhouse and kept under good growth conditions for the trial plants. The damage to the test plants is scored visually after a test period of 3 weeks by comparison with untreated controls (herbicidal activity in percent (%): 100% activity=the plants have died, 0% activity=like control plants).

LOLRI [9] = assay: Pre-emergence herbicidal action against LOLRI (Table 8, titled post-emergence at 320 g/ha); type: in vivo, Lolium rigidum; details: table stands in the pre-emergence section
Summary of the method: as §3

VIOTR = assay: Pre-emergence herbicidal action against VIOTR; type: in vivo, Viola tricolor; details: 320 g/ha
Summary of the method: as §3

AVEFA [10] = assay: Pre-emergence herbicidal action against AVEFA; type: in vivo, Avena fatua; details: 320 g/ha, scored visually after 3 weeks vs untreated controls
Summary of the method: as §3

ALOMY [11] = assay: Pre-emergence herbicidal action against ALOMY; type: in vivo, Alopecurus myosuroides; details: 320 g/ha, scored visually after 3 weeks vs untreated controls
Summary of the method: as §3

AMARE = assay: Pre-emergence herbicidal action against AMARE; type: in vivo, Amaranthus retroflexus; details: 320 g/ha
Summary of the method: as §3

ECHCG [12] = assay: Pre-emergence herbicidal action against ECHCG; type: in vivo, Echinochloa crus-galli; details: 320 g/ha, scored visually after 3 weeks vs untreated controls
Summary of the method: as §3

Compound	Post-emergence action against ECHCG in % (ECHCG [1]) [%]	Post-emergence action against AVEFA in % (AVEFA [2]) [%]	Post-emergence action against HORMU in % (HORMU) [%]	Post-emergence action against LOLRI in % (LOLRI [3]) [%]	Post-emergence action against SETVI in % (SETVI [4]) [%]	Post-emergence action against ALOMY in % (ALOMY [5]) [%]	Post-emergence action against DIGSA in % (DIGSA [6]) [%]	Pre-emergence action against SETVI in % (SETVI [7]) [%]	Pre-emergence action against DIGSA in % (DIGSA [8]) [%]	Pre-emergence action against VERPE in % (VERPE) [%]	Post-emergence action against ABUTH in % (ABUTH) [%]	Pre-emergence action against POLCO in % (POLCO) [%]	Pre-emergence herbicidal action against LOLRI in % (LOLRI [9]) [%]	Pre-emergence action against VIOTR in % (VIOTR) [%]	Pre-emergence action against AVEFA in % (AVEFA [10]) [%]	Pre-emergence action against ALOMY in % (ALOMY [11]) [%]	Pre-emergence action against AMARE in % (AMARE) [%]	Pre-emergence action against ECHCG in % (ECHCG [12]) [%]
CC#Cc1cc(Cl)c(C2=C(OC(=O)C(C)C)C3(CCC(COCC)C3)NC2=O)c(CC)c1 (stereo not drawn) [Example P-07]	100	100	100	100	100	100	100											
CC#Cc1cc(Cl)c(C2=C(OC(=O)OCC)C3(CCC(COC)C3)NC2=O)c(CC)c1 (stereo not drawn) [Example P-06]	100	100	100	100	100	100	100											
CC#Cc1cc(Cl)c(C2=C(O)C3(CCC(COCC)C3)NC2=O)c(OC)c1 (stereo not drawn) [Example I-07]	100	100	100	100	100	100	100											
CC#Cc1cc(Cl)c(C2=C(O)C3(CCC(COC)C3)NC2=O)c(CC)c1 (stereo not drawn) [Example I-04]	100	100	100	100	100	100	100											
C#Cc1cc(Cl)c(C2=C(O)C3(CCC(COC)C3)NC2=O)c(OC)c1 (stereo not drawn) [Example I-01]	90	90	100	100	90	100	90											
C#Cc1cc(Cl)c(C2=C(OC(=O)OCC)C3(CCC(COC)C3)NC2=O)c(OC)c1 (stereo not drawn) [Example P-19]	100	100	100	100	100	80	90											
C#Cc1cc(Cl)c(C2=C(O)C3(CCC(COCC)C3)NC2=O)c(OC)c1 (stereo not drawn) [Example I-08]		90	80	90	90	80	80											
CC#Cc1cc(C)c(C2=C(OC(=O)OCC)C3(CCC(COCC)C3)NC2=O)c(Cl)c1 (stereo not drawn) [Example P-11]		100	100	100	100	80	100											
CC#Cc1cc(C)c(C2=C(OC(=O)OCC)C3(CCC(COC)C3)NC2=O)c(Cl)c1 (stereo not drawn) [Example P-24]	100	100	100	100	100	100	100											
CC#Cc1cc(Cl)c(C2=C(OC(=O)C(C)C)C3(CCC(COC)C3)NC2=O)c(CC)c1 (stereo not drawn) [Example P-22]	100	100	100	100	100	100	100											
CC#Cc1cc(Cl)c(C2=C(OC(=O)OCC)C3(CCC(COC)C3)NC2=O)c(CC)c1 (stereo not drawn) [Example P-15]	100	100	100	100	100	100	100											
CC#Cc1cc(Cl)c(C2=C(O)C3(CCC(COC)C3)NC2=O)c(CC)c1 (stereo not drawn) [Example I-16]	100	100	100	100	100	100	100											
C#Cc1cc(Cl)c(C2=C(O)C3(CCC(COC)C3)NC2=O)c(OC)c1 (stereo not drawn) [Example I-13]	100	90	90	90	100	100	100											
CC#Cc1cc(C)c(C2=C(OC(=O)C(C)C)C3(CCC(COC)C3)NC2=O)c(Br)c1 (stereo not drawn) [Example P-33]		90		100	100	100	100	100	100	80	80	100	100	100	100	100	100	100
